In paper PMC10770617, “27-Hydroxylation of oncosterone by CYP27A1 switches its activity from pro-tumor to anti-tumor” (Journal of Lipid Research, 2023):

Legend:
[1] = molecular target: T1, HSD2 (11β-hydroxysteroid dehydrogenase type 2) (Homo sapiens, UniProt P80365); assay: inhibition of […]-CT to […]-OCDO conversion in HSD2-transfected HEK-293T lysate (TLC), Lineweaver-Burk and Dixon analysis; assay type: biochemical
T1 construct: gene HSD11B2; recombinant HSD2 (pCMV6-XL5 HSD2, SC122552) in HEK-293T cell lysate
T1 sequence (P80365 1-405): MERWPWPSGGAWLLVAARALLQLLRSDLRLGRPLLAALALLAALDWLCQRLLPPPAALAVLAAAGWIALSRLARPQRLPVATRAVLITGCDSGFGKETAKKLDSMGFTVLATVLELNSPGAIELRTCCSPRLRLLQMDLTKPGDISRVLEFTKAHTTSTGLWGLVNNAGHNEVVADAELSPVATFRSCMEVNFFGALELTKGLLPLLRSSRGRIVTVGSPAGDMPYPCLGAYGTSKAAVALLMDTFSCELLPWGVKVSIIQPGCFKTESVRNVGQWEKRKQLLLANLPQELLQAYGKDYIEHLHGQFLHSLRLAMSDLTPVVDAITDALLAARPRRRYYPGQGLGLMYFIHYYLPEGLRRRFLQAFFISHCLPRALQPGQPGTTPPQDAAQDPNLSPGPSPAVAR

[2] = molecular target: T2, CYP27A1 (Homo sapiens, UniProt Q02318); assay: inhibition of 27-hydroxylation of […]-CT in cells at […] (TLC); about […] (MDA-231) and […] (HepG2) reduction; assay type: cell-based
T2 construct: endogenous, MDA-231 and HepG2 cells
T2 sequence (Q02318 34-531): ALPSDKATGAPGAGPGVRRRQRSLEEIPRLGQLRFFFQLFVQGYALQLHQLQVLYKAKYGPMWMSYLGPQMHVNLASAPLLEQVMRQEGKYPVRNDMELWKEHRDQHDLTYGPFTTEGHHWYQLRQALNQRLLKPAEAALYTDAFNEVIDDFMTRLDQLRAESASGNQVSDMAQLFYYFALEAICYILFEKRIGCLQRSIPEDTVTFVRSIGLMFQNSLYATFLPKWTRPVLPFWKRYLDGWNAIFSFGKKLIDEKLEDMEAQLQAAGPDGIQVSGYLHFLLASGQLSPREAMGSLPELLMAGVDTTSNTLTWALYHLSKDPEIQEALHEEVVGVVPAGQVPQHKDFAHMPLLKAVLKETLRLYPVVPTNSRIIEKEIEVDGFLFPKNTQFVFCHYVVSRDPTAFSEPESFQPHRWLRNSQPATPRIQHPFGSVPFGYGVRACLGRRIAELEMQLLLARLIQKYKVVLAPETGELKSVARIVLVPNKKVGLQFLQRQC

SMILES	Ki [1]	inhibition at 10 µM [2]
C[C@@H](CO)CCC[C@@H](C)[C@H]1CC[C@H]2[C@@H]3C[C@@H](O)[C@@]4(O)C[C@@H](O)CC[C@]4(C)[C@H]3CC[C@]12C [27H-CT, (25R)-cholestane-3β,5α,6β,26-tetrol]	2300 nM	–
CC(O)(CS(=O)(=O)c1ccc(F)cc1)C(=O)Nc1ccc(C#N)c(C(F)(F)F)c1 (centres unmarked) [bicalutamide]	–	~60%
